# Reference: patent US20070219186A1, “Pyrazolo[1,5-A]pyrimidine derivatives and methods of use thereof” (priority 2006, published 2007)
# pIC50: −log10 of the molar value. Read-outs that look alike come from different tables or passages of the source.
# Biological target: T1, human B-Raf (Homo sapiens, UniProt P15056)
# T1 construct: Flag; GST; made in house; host or cells: Sf9 insect cells (B-Raf); E. coli (MEK1-GST)
# Experiment: B-Raf Kinase to MEK1 ELISA
# Type: biochemical
# Conditions: for inhibition at 10 µM: read-out: % Inhib./10 uM
# Method in brief: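 Read-out is a DELFIA europium signal from phospho-MEK1 (Ser217/221) antibody after capture of GST-MEK1 (50 nM final) on anti-GST plates. Phosphorylation comes from Sf9-expressed Flag/GST human B-Raf (~20 ng) with ATP/MgCl2, 60 min RT, pH 7.2 MOPS.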
# [1] = median, cpd concentrations from 10 μM to 30 nM in half log dilutions, read-out: Median IC50
# T1 sequence (P15056 whole entry): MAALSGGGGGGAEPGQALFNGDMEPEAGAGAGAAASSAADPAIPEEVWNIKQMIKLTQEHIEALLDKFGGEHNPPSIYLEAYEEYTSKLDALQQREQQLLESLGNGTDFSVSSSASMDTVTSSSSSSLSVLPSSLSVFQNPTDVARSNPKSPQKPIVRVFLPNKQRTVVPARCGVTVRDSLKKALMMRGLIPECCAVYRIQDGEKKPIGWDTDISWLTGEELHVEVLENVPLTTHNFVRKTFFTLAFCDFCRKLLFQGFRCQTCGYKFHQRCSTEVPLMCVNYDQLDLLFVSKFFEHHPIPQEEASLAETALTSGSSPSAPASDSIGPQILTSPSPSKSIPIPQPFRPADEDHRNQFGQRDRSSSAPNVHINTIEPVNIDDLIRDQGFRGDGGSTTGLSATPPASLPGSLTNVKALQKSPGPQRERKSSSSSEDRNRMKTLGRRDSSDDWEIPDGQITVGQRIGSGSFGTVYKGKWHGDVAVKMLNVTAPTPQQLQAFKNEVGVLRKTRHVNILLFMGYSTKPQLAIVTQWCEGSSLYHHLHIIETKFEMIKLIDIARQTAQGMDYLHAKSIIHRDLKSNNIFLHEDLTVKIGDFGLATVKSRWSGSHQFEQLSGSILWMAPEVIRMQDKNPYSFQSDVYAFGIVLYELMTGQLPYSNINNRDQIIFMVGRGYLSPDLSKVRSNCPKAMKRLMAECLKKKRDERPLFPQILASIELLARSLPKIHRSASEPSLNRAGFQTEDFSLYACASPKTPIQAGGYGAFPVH
pIC50 [1],inhibition at 10 µM,pIC50,"% Inhib./10 uM (single point assay, 10 uM)",Compound
7.09,79%,–,–,"COCC(=O)Nc1cccc(-c2cnn3c(-c4cccc(NC(=O)c5cccc(C(F)(F)F)c5)c4)ccnc23)c1 [Example 252, N-[3-(3-{3-[(methoxyacetyl)amino]phenyl}pyrazolo[1,5-a]pyrimidin-7-yl)phenyl]-3-(trifluoromethyl)benzamide]"
6.50,76%,–,–,"CN(C)CCc1ccccc1-c1cnn2c(-c3cccc(NC(=O)c4cccc(C(F)(F)F)c4)c3)ccnc12 [Example 280, N-[3-(3-{2-[2-(dimethylamino)ethyl]phenyl}pyrazolo[1,5-a]pyrimidin-7-yl)phenyl]-3-(trifluoromethyl)benzamide]"
< 5.00,43%,–,–,"CCOC(=O)c1cnn2c(-c3cccc(NC(=O)c4ccc(Cl)s4)c3)ccnc12 [Example 222, ethyl 7-(3-{[(5-chloro-2-thienyl)carbonyl]amino}phenyl)pyrazolo[1,5-a]pyrimidine-3-carboxylate]"
–,53%,5.75,–,"COC(=O)c1cccc(-c2cnn3c(-c4cccc(NC(=O)c5cccc(C(F)(F)F)c5)c4)ccnc23)c1 [Example 296, methyl 3-[7-(3-{[3-(trifluoromethyl)benzoyl]amino}phenyl)pyrazolo[1,5-a]pyrimidin-3-yl]benzoate]"
7.11,92%,–,–,"CNc1ccc(-c2cnn3c(-c4cccc(NC(=O)c5cccc(C(F)(F)F)c5)c4)ccnc23)cn1 [Example 284, N-(3-{3-[6-(methylamino)pyridin-3-yl]pyrazolo[1,5-a]pyrimidin-7-yl}phenyl)-3-(trifluoromethyl)benzamide]"
< 5.00,44%,–,–,"O=C(Nc1cccc(-c2ccnc3cc(-c4ccncc4)nn23)c1)c1nccc2ccccc12 [Example 237, N-[3-(2-pyridin-4-ylpyrazolo[1,5-a]pyrimidin-7-yl)phenyl]isoquinoline-1-carboxamide]"
< 5.00,40%,–,–,"NC1CCN(c2cc3nccc(-c4cccc(NC(=O)c5cccc(C(F)(F)F)c5)c4)n3n2)C1 (stereo not drawn) [Example 213, N-{3-[2-(3-aminopyrrolidin-1-yl)pyrazolo[1,5-a]pyrimidin-7-yl]phenyl}-3-(trifluoromethyl)benzamide]"

# Further lines, the compound ahead of its results:
Compound,pIC50 [1],inhibition at 10 µM,pIC50,"% Inhib./10 uM (single point assay, 10 uM)"
"CCOC(=O)c1cnn2c(-c3cccc(NC(=O)Cc4cc(C(F)(F)F)cc(C(F)(F)F)c4)c3)ccnc12 [Example 99, ethyl 7-[3-({[3,5-bis(trifluoromethyl)phenyl]acetyl}amino)phenyl]pyrazolo[1,5-a]pyrimidine-3-carboxylate]",< 5.00,13%,–,–
"CCOC(=O)c1cnn2c(-c3cccc(NC(=O)Cc4ccc(Cl)c(Cl)c4)c3)ccnc12 [Example 95, ethyl 7-(3-{[(3,4-dichlorophenyl)acetyl]amino}phenyl)pyrazolo[1,5-a]pyrimidine-3-carboxylate]",< 5.00,39%,–,–
"Cc1ccc(C(=O)Nc2cccc(-c3ccnc4cc(-c5ccncc5)nn34)c2)cc1C(F)(F)F [Example 134, 4-methyl-N-[3-(2-pyridin-4-ylpyrazolo[1,5-a]pyrimidin-7-yl)phenyl]-3-(trifluoromethyl)benzamide]",7.40,96%,–,–
"O=C(Nc1cccc(-c2ccnc3c(Br)cnn23)c1)Nc1ccc(Cl)c(C(F)(F)F)c1 [Example 143, N-[3-(3-bromopyrazolo[1,5-a]pyrimidin-7-yl)phenyl]-N′-[4-chloro-3-(trifluoromethyl)phenyl]urea]",6.85,92%,–,–
"O=C(Nc1cccc(-c2ccnc3c(C(=O)NCCN4CCCC4)cnn23)c1)c1cccc(C(F)(F)F)c1 [Example 48, N-(2-pyrrolidin-1-ylethyl)-7-(3-{[3-(trifluoromethyl)benzoyl]amino}phenyl)pyrazolo[1,5-a]pyrimidine-3-carboxamide]",–,43%,–,–
"CCOC(=O)c1cnn2c(-c3cccc(NC(=O)Nc4ccc(C(C)C)cc4)c3)ccnc12 [Example 20, ethyl 7-[3-({[(4-isopropylphenyl)amino]carbonyl}amino)phenyl]pyrazolo[1,5-a]pyrimidine-3-carboxylate]",< 5.00,30%,–,–
"CCOC(=O)c1cnn2c(-c3cccc(NC(=O)c4ccc(Cl)cc4)c3)ccnc12 [Example 6, ethyl 7-{3-[(4-chlorobenzoyl)amino]phenyl}pyrazolo[1,5-a]pyrimidine-3-carboxylate]",< 4.70,38%,–,–
"CCOC(=O)c1cnn2c(-c3cccc(NS(=O)(=O)c4cccc(C(F)(F)F)c4)c3)ccnc12 [Example 12, ethyl 7-[3-({[3-(trifluoromethyl)phenyl]sulfonyl}amino)phenyl]pyrazolo[1,5-a]pyrimidine-3-carboxylate]",< 4.70,7%,–,–
"Cc1ccc(C(=O)Nc2cccc(-c3ccnc4cc(-c5ccc(Cl)cc5)nn34)c2)cc1C(F)(F)F [Example 118, N-{3-[2-(4-chlorophenyl)pyrazolo[1,5-a]pyrimidin-7-yl]phenyl}-4-methyl-3-(trifluoromethyl)benzamide]",< 5.00,22%,–,–
"CCOC(=O)c1cnn2c(-c3cccc(NC(=O)Nc4ccc(Cl)cc4C(F)(F)F)c3)ccnc12 [Example 43, ethyl 7-{3-[({[4-chloro-2-(trifluoromethyl)phenyl]amino}carbonyl)amino]phenyl}pyrazolo[1,5-a]pyrimidine-3-carboxylate]",< 5.00,9%,–,–
"ethyl 7-{3-[(pyridin-3-ylcarbonyl)amino]phenyl}pyrazolo[1,5-a]pyrimidine-3-carboxylate [Example 204]",< 5.00,–,–,12%
"Cc1ccc(C(=O)Nc2cccc(-c3ccnc4cc(-c5ccncc5)nn34)c2)cc1 [Example 148, 4-methyl-N-[3-(2-pyridin-4-ylpyrazolo[1,5-a]pyrimidin-7-yl)phenyl]benzamide]",< 5.00,20%,–,–
"O=C(Nc1cccc(-c2ccnc3c(-c4cccnc4)cnn23)c1)Nc1ccc(Cl)c(C(F)(F)F)c1 [Example 174, N-[4-chloro-3-(trifluoromethyl)phenyl]-N′-[3-(3-pyridin-3-ylpyrazolo[1,5-a]pyrimidin-7-yl)phenyl]urea]",6.96,96%,–,–
"O=C(Nc1cccc(-c2ccnc3c(C(=O)NCCCn4ccnc4)cnn23)c1)Nc1ccc(Cl)c(C(F)(F)F)c1 [Example 120, 7-{3-[({[4-chloro-3-(trifluoromethyl)phenyl]amino}carbonyl)amino]phenyl}-N-[3-(1H-imidazol-1-yl)propyl]pyrazolo[1,5-a]pyrimidine-3-carboxamide]",6.92,92%,–,–
"CCOC(=O)c1cnn2c(-c3cccc(NC(=O)c4ccc(OC)c(Cl)c4)c3)ccnc12 [Example 73, ethyl 7-{3-[(3-chloro-4-methoxybenzoyl)amino]phenyl}pyrazolo[1,5-a]pyrimidine-3-carboxylate]",< 5.00,5%,–,–
"CCOC(=O)c1cnn2c(-c3cccc(NC(=O)c4cc(Cl)cc(Cl)c4)c3)ccnc12 [Example 72, ethyl 7-{3-[(3,5-dichlorobenzoyl)amino]phenyl}pyrazolo[1,5-a]pyrimidine-3-carboxylate]",< 5.00,4%,–,–
